Tested on: 695427-040-R-J1-PDC complex spheroid viability
Test: Anticancer human tumor 695427-040-R-J1-PDC patient-derived colon adenocarcinoma cell line growth inhibition [POLQ]
Details: for IC50: curve of first compound; for viability, T/C: stronger effect = lower value
Method in brief: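 Growth inhibition in 3D: complex spheroids (tumor PDC, HUVEC, MSC) treated with POLQ inhibitor combinations; where Cmax unknown, highest tested concentration 10 microM, except SN-38 at 1 microM.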

[1] = second compound 0.0316 µM, first compound 0.0316 µM
[2] = second compound 0.0316 µM, first compound 0.1 µM
[3] = second compound 0.0316 µM, first compound 0.316 µM
[4] = second compound 0.0316 µM, first compound 1 µM
[5] = second compound 0.0316 µM, first compound 3.16 µM
[6] = second compound 0.0316 µM, first compound 10 µM
[7] = second compound 0.1 µM, first compound 0.0316 µM
[8] = second compound 0.1 µM, first compound 0.1 µM
[9] = second compound 0.1 µM, first compound 0.316 µM
[10] = second compound 0.1 µM, first compound 1 µM
[11] = second compound 0.1 µM, first compound 3.16 µM
[12] = second compound 0.1 µM, first compound 10 µM
[13] = second compound 0.316 µM, first compound 0.0316 µM
[14] = second compound 0.316 µM, first compound 0.1 µM
[15] = second compound 0.316 µM, first compound 0.316 µM
[16] = second compound 0.316 µM, first compound 1 µM
[17] = second compound 0.316 µM, first compound 3.16 µM
[18] = second compound 0.316 µM, first compound 10 µM
[19] = second compound 1 µM, first compound 0.0316 µM
[20] = second compound 1 µM, first compound 0.1 µM
[21] = second compound 1 µM, first compound 0.316 µM
[22] = second compound 1 µM, first compound 1 µM
[23] = second compound 1 µM, first compound 3.16 µM
[24] = second compound 1 µM, first compound 10 µM
[25] = second compound 3.16 µM, first compound 0.0316 µM
[26] = second compound 3.16 µM, first compound 0.1 µM
[27] = second compound 3.16 µM, first compound 0.316 µM
[28] = second compound 3.16 µM, first compound 1 µM
[29] = second compound 3.16 µM, first compound 3.16 µM
[30] = second compound 3.16 µM, first compound 10 µM
[31] = second compound 10 µM, first compound 0.0316 µM
[32] = second compound 10 µM, first compound 0.1 µM
[33] = second compound 10 µM, first compound 0.316 µM
[34] = second compound 10 µM, first compound 1 µM
[35] = second compound 10 µM, first compound 3.16 µM
[36] = second compound 10 µM, first compound 10 µM
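Also: spheroids exposed to compounds for seven days.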
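For viability, T/C in this document: 100% = DMSO vehicle control viability.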

SMILES: C#Cc1c(F)ccc2cc(O)cc(-c3ncc4c(N5CC6CCC(C5)N6)nc(OCC56CCCN5CC(F)C6)nc4c3F)c12 (stereo not drawn) + Cc1cccc(N(C)C(=O)C2C(O)CCN2c2nc(C)cc(C(F)(F)F)c2C#N)c1
- IC50 (second compound 0.0316 µM): > 10 µM
- IC50 (second compound 0.1 µM): > 10 µM
- IC50 (second compound 0.316 µM): > 10 µM
- IC50 (second compound 1 µM): > 10 µM
- IC50 (second compound 3.16 µM): > 10 µM
- IC50 (second compound 10 µM): > 10 µM
- viability, T/C [1]: 106%
- viability, T/C [2]: 99.3%
- viability, T/C [3]: 98%
- viability, T/C [4]: 104%
- viability, T/C [5]: 88.3%
- viability, T/C [6]: 86.9%
- viability, T/C [7]: 102%
- viability, T/C [8]: 100%
- viability, T/C [9]: 90.8%
- viability, T/C [10]: 96%
- viability, T/C [11]: 92.1%
- viability, T/C [12]: 78.8%
- viability, T/C [13]: 98.3%
- viability, T/C [14]: 99%
- viability, T/C [15]: 97.8%
- viability, T/C [16]: 104%
- viability, T/C [17]: 90.8%
- viability, T/C [18]: 80.6%
- viability, T/C [19]: 98%
- viability, T/C [20]: 92.4%
- viability, T/C [21]: 94.3%
- viability, T/C [22]: 92.1%
- viability, T/C [23]: 89.2%
- viability, T/C [24]: 83.2%
- viability, T/C [25]: 88.5%
- viability, T/C [26]: 94.3%
- viability, T/C [27]: 97%
- viability, T/C [28]: 90.4%
- viability, T/C [29]: 91%
- viability, T/C [30]: 76.1%
- viability, T/C [31]: 92.8%
- viability, T/C [32]: 84.7%
- viability, T/C [33]: 85.4%
- viability, T/C [34]: 84.7%
- viability, T/C [35]: 73.2%
- viability, T/C [36]: 61.5%

SMILES: CC1COCCN1c1cc(C2(O)CC3CCC(C2)O3)c2cnn(-c3ccn[nH]3)c2n1 (stereo not drawn) + Cc1cccc(N(C)C(=O)C2C(O)CCN2c2nc(C)cc(C(F)(F)F)c2C#N)c1
- IC50 (second compound 0.0316 µM): 6.2 µM
- IC50 (second compound 0.1 µM): 7.33 µM
- IC50 (second compound 0.316 µM): 6.13 µM
- IC50 (second compound 1 µM): 6.54 µM
- IC50 (second compound 3.16 µM): 4.63 µM
- IC50 (second compound 10 µM): 2.82 µM
- viability, T/C [1]: 102%
- viability, T/C [2]: 84.5%
- viability, T/C [3]: 76.9%
- viability, T/C [4]: 66%
- viability, T/C [5]: 52.5%
- viability, T/C [6]: 47.3%
- viability, T/C [7]: 102%
- viability, T/C [8]: 91.3%
- viability, T/C [9]: 85%
- viability, T/C [10]: 70.8%
- viability, T/C [11]: 55.9%
- viability, T/C [12]: 47.9%
- viability, T/C [13]: 109%
- viability, T/C [14]: 88.1%
- viability, T/C [15]: 80.6%
- viability, T/C [16]: 67.1%
- viability, T/C [17]: 58.4%
- viability, T/C [18]: 44%
- viability, T/C [19]: 100%
- viability, T/C [20]: 91.4%
- viability, T/C [21]: 82.6%
- viability, T/C [22]: 66.6%
- viability, T/C [23]: 56.8%
- viability, T/C [24]: 46.3%
- viability, T/C [25]: 96%
- viability, T/C [26]: 92.6%
- viability, T/C [27]: 73.8%
- viability, T/C [28]: 65.6%
- viability, T/C [29]: 53.8%
- viability, T/C [30]: 43.5%
- viability, T/C [31]: 93.3%
- viability, T/C [32]: 88.6%
- viability, T/C [33]: 70.3%
- viability, T/C [34]: 56.1%
- viability, T/C [35]: 51.5%
- viability, T/C [36]: 45.6%

SMILES: CCc1cc2c(N3CCc4c(cc(Cn5ccnc5)cc4-c4cn(C)nc4C(F)(F)F)C3=O)cc(C)nc2c(OC)n1 + Cc1cccc(N(C)C(=O)C2C(O)CCN2c2nc(C)cc(C(F)(F)F)c2C#N)c1
- IC50 (second compound 0.0316 µM): > 10 µM
- IC50 (second compound 0.1 µM): > 10 µM
- IC50 (second compound 0.316 µM): > 10 µM
- IC50 (second compound 1 µM): > 10 µM
- IC50 (second compound 3.16 µM): > 10 µM
- IC50 (second compound 10 µM): > 10 µM
- viability, T/C [1]: 102%
- viability, T/C [2]: 99.6%
- viability, T/C [3]: 104%
- viability, T/C [4]: 108%
- viability, T/C [5]: 108%
- viability, T/C [6]: 98.3%
- viability, T/C [7]: 110%
- viability, T/C [8]: 100%
- viability, T/C [9]: 102%
- viability, T/C [10]: 107%
- viability, T/C [11]: 103%
- viability, T/C [12]: 103%
- viability, T/C [13]: 108%
- viability, T/C [14]: 105%
- viability, T/C [15]: 93.2%
- viability, T/C [16]: 105%
- viability, T/C [17]: 110%
- viability, T/C [18]: 95.7%
- viability, T/C [19]: 117%
- viability, T/C [20]: 95.6%
- viability, T/C [21]: 88.3%
- viability, T/C [22]: 95.4%
- viability, T/C [23]: 108%
- viability, T/C [24]: 85.2%
- viability, T/C [25]: 99.8%
- viability, T/C [26]: 92.2%
- viability, T/C [27]: 91.8%
- viability, T/C [28]: 106%
- viability, T/C [29]: 97.5%
- viability, T/C [30]: 108%
- viability, T/C [31]: 102%
- viability, T/C [32]: 98.7%
- viability, T/C [33]: 87.8%
- viability, T/C [34]: 95.4%
- viability, T/C [35]: 93.9%
- viability, T/C [36]: 89.7%

SMILES: CCc1cc2c(N3CCc4c(cc(Cn5ccnc5)cc4-c4cn(C)nc4C(F)(F)F)C3=O)ccnc2c(OC)n1 + Cc1cccc(N(C)C(=O)C2C(O)CCN2c2nc(C)cc(C(F)(F)F)c2C#N)c1
- IC50 (second compound 0.0316 µM): > 10 µM
- IC50 (second compound 0.1 µM): > 10 µM
- IC50 (second compound 0.316 µM): > 10 µM
- IC50 (second compound 1 µM): > 10 µM
- IC50 (second compound 3.16 µM): > 10 µM
- IC50 (second compound 10 µM): > 10 µM
- viability, T/C [1]: 97%
- viability, T/C [2]: 99.7%
- viability, T/C [3]: 98.2%
- viability, T/C [4]: 104%
- viability, T/C [5]: 105%
- viability, T/C [6]: 92.4%
- viability, T/C [7]: 110%
- viability, T/C [8]: 107%
- viability, T/C [9]: 109%
- viability, T/C [10]: 103%
- viability, T/C [11]: 114%
- viability, T/C [12]: 89.3%
- viability, T/C [13]: 105%
- viability, T/C [14]: 109%
- viability, T/C [15]: 92.8%
- viability, T/C [16]: 113%
- viability, T/C [17]: 109%
- viability, T/C [18]: 81.3%
- viability, T/C [19]: 103%
- viability, T/C [20]: 108%
- viability, T/C [21]: 105%
- viability, T/C [22]: 103%
- viability, T/C [23]: 102%
- viability, T/C [24]: 82.7%
- viability, T/C [25]: 101%
- viability, T/C [26]: 94.9%
- viability, T/C [27]: 95.2%
- viability, T/C [28]: 103%
- viability, T/C [29]: 99.8%
- viability, T/C [30]: 85.5%
- viability, T/C [31]: 98%
- viability, T/C [32]: 86.4%
- viability, T/C [33]: 93.6%
- viability, T/C [34]: 97.8%
- viability, T/C [35]: 103%
- viability, T/C [36]: 83.6%
